The target of one assay is T1, HDAC3 (Homo sapiens, UniProt O15379).
T1 construct: endogenous in cells; host or cells: MV4-11 lysate
The experiment in a line: Chemoproteomic competition pulldown assay. It is filed as binding. The following applies: iL, MV4-11 lysate. Here is the method: To identify proteins directly bound by lipoic acid, we employed a chemoproteomic competition assay. Briefly, (R/S)-LA was immobilized on sepharose beads via an amidation reaction to form an affinity matrix (abbreviated as iL; Fig. 1a). This affinity matrix can be incubated with cell lysate to pull down potential LA or LM target proteins and identify these targets via bottom-up proteomics. In a competition assay, free LA or LM were incubated with lysate at different concentrations before pulling down and quantifying target proteins. […] (Fig. 1b, see “Methods” for details). […] The lysate buffer used in this assay contains 1 mM DTT to mimic the intracellular reductive milieu and to reduce lipoic acid and LM. […] Additional competition assays performed in lung adenocarcinoma cell A549 lysate also identified HDAC1, HDAC2, and HDAC6 as targets (Supplementary Fig. 1b). Amongst the three cell lines tested, HDACs were the only confidently identified targets across the 1500–3000 proteins quantified in these assays. […] We validated the results by analogous pulldown competition assays using two other affinity matrices prepared via the immobilization of either the HDAC inhibitor Quisinostat (iQ) and an analog of the class IIa HDAC inhibitor Bürli’s 31[14] (iC)[12]. We have previously shown that these affinity matrices specifically bind to the active sites of HDACs and have used them for HDACi selectivity profiling. Indeed, binding of (R/S)-LA and (R/S)-LM to HDAC1, HDAC2, HDAC3, HDAC6, and, to a lesser extent, HDAC8 was confirmed in these assays (Supplementary Fig. 1c, d). No binding to class IIa HDACs or the recently discovered common HDAC inhibitor off-target MBLAC2 was observed (Supplementary Fig. 1e)[12]. […] This observation might reflect electrostatic repulsion between the HDAC10 active site gate-keeper glutamic acid residues[15],[16] and the terminal carboxylic acid of LA.
To assess the degree of protein depletion from lysates by the affinity matrix, a second pulldown (PDPD) with fresh beads was performed using the unbound protein fraction from the vehicle control flow through. The beads were washed (1 × 1 mL of lysis buffer without inhibitors and only 0.4% Igepal, 2 × 2 mL of lysis buffer without inhibitors and only 0.2% Igepal), and captured proteins were denatured with 8 M urea buffer, alkylated with 55 mM chloroacetamide and digested with Trypsin according to standard procedures. The resulting peptides were desalted on a C18 filter plate (Sep-Pak® tC18 µElution Plate, Waters), vacuum dried, and stored at −20 °C until LC–MSMS measurement.
For the competition assays, relative binding was calculated based on the protein intensity ratio to the DMSO control for every single inhibitor concentration. EC50 values were derived from a four-parameter log-logistic regression with variable slope (constrain: bottom > 0). The obtained EC50 values were multiplied with a protein-dependent correction factor (cf), resulting in the apparent Kd value (Kd^app). The correction factor is determined by calculating the ratio of the protein intensity of two consecutive pulldowns of the vehicle control sample[13]. Targets of the inhibitors were annotated manually according to published procedures[12],[46],[47]. […] Additionally, the number of unique peptides and MSMS counts per condition were taken into account. Positive target binding across several independent experiments performed with different cell lysates further substantiated our confidence for a true positive drug-target binding event.

The next assay deals with T2, HDAC10 (Homo sapiens, UniProt Q969S8).
T2 construct: host or cells: HeLa mono-clones, stably expressing
T2 sequence (Q969S8 1-669): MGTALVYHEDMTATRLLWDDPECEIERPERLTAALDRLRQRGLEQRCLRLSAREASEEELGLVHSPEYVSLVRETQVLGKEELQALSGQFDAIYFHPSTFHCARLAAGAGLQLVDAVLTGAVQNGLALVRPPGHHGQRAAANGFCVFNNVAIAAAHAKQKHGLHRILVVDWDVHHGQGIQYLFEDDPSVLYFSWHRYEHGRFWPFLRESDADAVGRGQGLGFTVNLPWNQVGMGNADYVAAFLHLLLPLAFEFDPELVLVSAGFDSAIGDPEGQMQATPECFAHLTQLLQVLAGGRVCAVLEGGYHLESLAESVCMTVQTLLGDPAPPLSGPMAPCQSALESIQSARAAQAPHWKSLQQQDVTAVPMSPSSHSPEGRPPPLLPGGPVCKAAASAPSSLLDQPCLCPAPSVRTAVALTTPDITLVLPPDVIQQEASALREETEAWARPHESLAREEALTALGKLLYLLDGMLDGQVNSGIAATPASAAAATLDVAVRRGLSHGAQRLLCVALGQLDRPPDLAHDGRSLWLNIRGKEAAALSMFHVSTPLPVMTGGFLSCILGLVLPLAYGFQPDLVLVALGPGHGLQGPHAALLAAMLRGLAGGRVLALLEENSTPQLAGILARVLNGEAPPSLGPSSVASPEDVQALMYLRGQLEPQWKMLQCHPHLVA
The experiment in a line: NanoBRET intracellular target engagement assay. It is filed as cell-based. The note with it: HeLa cells. Here is the method: For the production of transfected HeLa mono-clones stably expressing HDAC-nanoBRET fusion proteins of HDAC10 and HDAC6-catalytic domain 2 (HDAC6CD2), plasmids expressing a fusion of HDAC10 with nanoluciferase were obtained from Promega (N2170). HeLa cells (0.75 × 10^6) were seeded in a 6 cm dish and were transfected with a mix of 10 μg plasmid and 3 μL Fugene in 200 μL OptiMEM after 24 h. The intracellular target engagement assay on HDAC10 and HDAC6CD2 was performed using the NanoBRET™ Target Engagement Intracellular HDAC Assay (Promega N2081 and N2090) as described by the kit manufacturer in a 96-well plate (Corning 3600) format with 2 × 10^4 cells per well and a tracer concentration of 0.3 μM. Inhibitors were dosed with a D300e Digital Dispenser (Tecan). DMSO concentrations were normalized to 0.5% for all wells. After dosing, assay plates were shaken at 800 rpm and incubated at 37 °C for 2 h followed by measurement of 450 nm and 650 nm luminescence (80 nm bandwidth) at room temperature with a CLARIOstar (BMG Labtech) plate reader 2 min after NanoLuc substrate addition.
(In BRET a luciferase serves as donor, and the signal depends on an acceptor being close.)

A further assay concerns A549 cells. The experiment in a line: CellRox deep red assay for ROS quantification (with or without arsenite). It counts as cell-based. The note with it: sheet 4d.

Where “and” joins values, the source holds several entries; their conditions need not be identical. Equal values may be shown once.

T1 sequence (O15379 whole entry): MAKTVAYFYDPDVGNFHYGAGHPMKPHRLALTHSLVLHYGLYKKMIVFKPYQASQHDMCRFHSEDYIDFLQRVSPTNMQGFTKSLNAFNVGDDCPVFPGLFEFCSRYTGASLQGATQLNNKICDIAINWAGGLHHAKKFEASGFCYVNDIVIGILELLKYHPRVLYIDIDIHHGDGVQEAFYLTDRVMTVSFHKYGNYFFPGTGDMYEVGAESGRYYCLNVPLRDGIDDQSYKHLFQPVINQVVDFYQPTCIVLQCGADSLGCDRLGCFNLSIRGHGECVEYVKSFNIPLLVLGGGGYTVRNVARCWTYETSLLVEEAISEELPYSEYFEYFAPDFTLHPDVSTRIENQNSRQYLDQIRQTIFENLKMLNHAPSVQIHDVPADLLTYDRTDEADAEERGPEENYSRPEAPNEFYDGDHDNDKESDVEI
T1 sequence (O75376 whole entry partner): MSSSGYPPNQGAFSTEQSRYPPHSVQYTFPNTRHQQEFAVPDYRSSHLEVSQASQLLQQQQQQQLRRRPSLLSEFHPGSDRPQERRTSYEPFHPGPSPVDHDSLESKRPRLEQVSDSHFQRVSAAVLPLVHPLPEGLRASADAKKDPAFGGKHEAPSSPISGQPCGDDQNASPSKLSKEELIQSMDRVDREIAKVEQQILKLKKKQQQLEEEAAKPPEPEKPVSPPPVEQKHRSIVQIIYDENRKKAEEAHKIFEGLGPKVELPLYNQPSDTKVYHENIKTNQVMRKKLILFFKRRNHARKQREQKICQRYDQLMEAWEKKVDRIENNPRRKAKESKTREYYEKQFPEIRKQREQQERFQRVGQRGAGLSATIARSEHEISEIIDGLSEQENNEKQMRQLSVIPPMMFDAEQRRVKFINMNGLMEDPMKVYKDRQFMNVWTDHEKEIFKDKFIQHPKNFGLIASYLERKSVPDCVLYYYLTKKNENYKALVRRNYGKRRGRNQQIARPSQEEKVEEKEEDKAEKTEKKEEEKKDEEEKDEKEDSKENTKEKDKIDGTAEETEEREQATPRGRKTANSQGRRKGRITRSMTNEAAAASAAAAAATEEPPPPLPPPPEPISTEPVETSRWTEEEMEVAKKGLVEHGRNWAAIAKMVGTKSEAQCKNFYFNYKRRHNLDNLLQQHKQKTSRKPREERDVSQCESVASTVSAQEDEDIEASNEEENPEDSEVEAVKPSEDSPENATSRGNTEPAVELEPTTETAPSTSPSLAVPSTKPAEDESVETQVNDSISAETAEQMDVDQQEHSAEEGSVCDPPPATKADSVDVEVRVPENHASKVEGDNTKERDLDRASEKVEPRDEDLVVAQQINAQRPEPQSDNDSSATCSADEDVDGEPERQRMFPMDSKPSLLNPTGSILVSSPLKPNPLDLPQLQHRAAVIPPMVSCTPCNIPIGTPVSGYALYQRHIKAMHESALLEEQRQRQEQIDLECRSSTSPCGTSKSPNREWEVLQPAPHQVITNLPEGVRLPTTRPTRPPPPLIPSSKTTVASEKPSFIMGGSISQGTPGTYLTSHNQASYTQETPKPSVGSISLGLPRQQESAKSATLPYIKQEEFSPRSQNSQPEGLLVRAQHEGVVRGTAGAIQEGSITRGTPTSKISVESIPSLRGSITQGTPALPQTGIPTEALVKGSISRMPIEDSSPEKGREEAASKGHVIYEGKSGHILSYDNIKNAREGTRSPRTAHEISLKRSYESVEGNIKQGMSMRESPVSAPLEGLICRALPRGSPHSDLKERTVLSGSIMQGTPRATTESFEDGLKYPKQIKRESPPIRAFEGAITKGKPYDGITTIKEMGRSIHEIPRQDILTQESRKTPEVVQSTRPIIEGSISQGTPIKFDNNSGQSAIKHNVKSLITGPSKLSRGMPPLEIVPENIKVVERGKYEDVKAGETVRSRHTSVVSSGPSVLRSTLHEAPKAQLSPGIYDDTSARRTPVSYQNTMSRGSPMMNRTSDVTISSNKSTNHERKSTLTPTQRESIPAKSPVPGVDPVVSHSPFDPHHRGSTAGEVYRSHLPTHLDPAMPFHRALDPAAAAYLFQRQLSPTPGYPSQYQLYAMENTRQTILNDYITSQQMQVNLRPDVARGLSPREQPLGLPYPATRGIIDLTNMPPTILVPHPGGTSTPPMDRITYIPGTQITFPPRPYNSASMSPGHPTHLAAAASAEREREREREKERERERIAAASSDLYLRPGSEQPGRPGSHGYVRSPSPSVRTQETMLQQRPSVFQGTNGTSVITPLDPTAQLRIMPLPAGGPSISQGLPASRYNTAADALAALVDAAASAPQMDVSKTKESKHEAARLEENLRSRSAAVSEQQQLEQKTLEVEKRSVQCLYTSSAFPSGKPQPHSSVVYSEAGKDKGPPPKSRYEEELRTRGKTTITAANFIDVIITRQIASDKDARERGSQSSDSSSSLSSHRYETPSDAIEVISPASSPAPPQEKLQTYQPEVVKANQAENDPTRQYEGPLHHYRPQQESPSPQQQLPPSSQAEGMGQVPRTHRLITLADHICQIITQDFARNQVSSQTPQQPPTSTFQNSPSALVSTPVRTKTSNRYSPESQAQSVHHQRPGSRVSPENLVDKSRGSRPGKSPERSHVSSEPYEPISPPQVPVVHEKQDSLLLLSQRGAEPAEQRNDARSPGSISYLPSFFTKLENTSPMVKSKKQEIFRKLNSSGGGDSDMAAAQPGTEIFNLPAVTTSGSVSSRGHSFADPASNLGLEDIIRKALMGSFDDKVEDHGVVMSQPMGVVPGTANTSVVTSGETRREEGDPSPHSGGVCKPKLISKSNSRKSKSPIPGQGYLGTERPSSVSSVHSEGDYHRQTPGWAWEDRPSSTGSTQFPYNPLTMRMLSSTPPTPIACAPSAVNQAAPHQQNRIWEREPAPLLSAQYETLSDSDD

Take `NC(=O)CCCCC1CCSS1` (racemic) [(R/S)-LM, (R/S)-lipoamide]: the “relative binding vs DMSO” value came to 0.06787 on HDAC3 (log10 M -3.52288); 0.1873 at HDAC3 (log10 M -4); 0.229 on HDAC3 (log10 M -4.52288); 0.6794 on HDAC3 (log10 M -5); 1.111 on HDAC3 (log10 M -5.52288); 0.7918 at HDAC3 (log10 M -6). Moreover, the entries for the “relative binding vs DMSO” value at HDAC3 (log10 M -6.52288) and on HDAC3 (log10 M -7) were 1.34 and 0.7531, respectively. Moreover, the Kd at HDAC3 (read-out: Kd app) was 13 µM. Besides, at HDAC10, the “intracellular binding to HDAC10” value is “dose-dependent intracellular binding”. Moreover, the “ROS (CellRox), relative to DMSO -Ars., Mean” value with A549 cells (R/S-LM +Ars) was found to be 1.413; in the assay with A549 cells (R/S-LM -Ars), 1.131. In addition, the “ROS (CellRox), relative to DMSO -Ars., replicate values” in the assay on A549 cells (R/S-LM +Ars) is 1.506 and 1.194 and 1.54; with A549 cells (R/S-LM -Ars), 1.077 and 0.9596 and 1.357.
